Results: patent US5220008A, “Oligosaccharide inhibitors for influenza virus” (priority 1991, dated 1993)

Test system: influenza virus (A/Aichi/2/68)
Experiment: Inhibition of Influenza Virus Adsorbtion to Erythrocytes (hemagglutination of resialylated human erythrocytes)
Details: relative to Me αDNeuAc = 1.0 (Table 8)
Source text: The heptasaccharides can be evaluated as inhibitors of the influenza virus hemagglutination of the resialylated human erythrocytes.
^a Inhibition of influenza virus (A/Aichi/2/68) to resialylated

Row | Structure (SMILES) | Relative Potency
1 | COC(=O)CCCCCOC1OC(CO)C(O)C(OC2OC(CO)C(OC3OC(COC4(C(=O)O)CC(O)C(NC(C)=O)C(C(O)C(O)CO)O4)C(O)C(O)C3O)C(O)C2NC(C)=O)C1OC1OC(CO)C(OC2OC(COC3(C(=O)O)CC(O)C(NC(C)=O)C(C(O)C(O)CO)O3)C(O)C(O)C2O)C(O)C1NC(C)=O [Example 27, 5-(Methoxycarbonyl)pentyl 2,3-di-O-{5-acetamido-3,5-dideoxy-D-glycero-D-galacto-2-nanulopyranosylonic acid(2→6)-β-D-galactopyranosyl(1→4)-2-acetamido-2-deoxy-β-D-glucopyranosyl}-β-D-galactopyranoside] | 7.2
2 | COC(=O)CCCCCOC1OC(CO)C(OC2OC(CO)C(OC3OC(COC4(C(=O)O)CC(O)C(NC(C)=O)C(C(O)C(O)CO)O4)C(O)C(O)C3O)C(O)C2NC(C)=O)C(O)C1OC1OC(CO)C(OC2OC(COC3(C(=O)O)CC(O)C(NC(C)=O)C(C(O)C(O)CO)O3)C(O)C(O)C2O)C(O)C1NC(C)=O [Example 28, 5-(Methoxycarbonyl)pentyl 2,4-di-O-{5-acetamido-3,5-dideoxy-D-glycero-D-galacto-2-nanulopyranosylonic acid(2→6)-β-D-galactopyranosyl(1→4)-2--acetamido-2-deoxy-β-D-glucopyranosyl}-β-D-galactopyranoside] | 1.5
3 | COC(=O)CCCCCOC1OC(CO)C(OC2OC(CO)C(OC3OC(CO)C(O)C(O)C3O)C(O)C2NC(C)=O)C(O)C1OC1OC(CO)C(OC2OC(COC3(C(=O)O)CC(O)C(NC(C)=O)C(C(O)C(O)CO)O3)C(O)C(O)C2O)C(O)C1NC(C)=O [Example 28A, 5-(methoxycarbonyl)pentyl 2-O-[5-acetamido-3,5-dideoxy-D-glycero-D-galactononulopyranosylonic acid (2→6)-β-D-galactopyranosyl-(1→4)-2-acetamido-2-deoxy-D-glycopyranosyl]-4-O-[β-D-galactopyranosyl-(1→4)-2-acetamido-2-deoxy-D-glucopyranosyl]-β-D-galactopyranoside] | 1.9
4 | COC(=O)CCCCCOC1OC(COC2OC(CO)C(OC3OC(COC4(C(=O)O)CC(O)C(NC(C)=O)C(C(O)C(O)CO)O4)C(O)C(O)C3O)C(O)C2NC(C)=O)C(O)C(OC2OC(CO)C(OC3OC(COC4(C(=O)O)CC(O)C(NC(C)=O)C(C(O)C(O)CO)O4)C(O)C(O)C3O)C(O)C2NC(C)=O)C1O [Example 30, 5-(Methoxycarbonyl)pentyl 3,6-di-O-{5-acetamido-3,5-dideoxy-D-glycero-D-galacto-2-nanulopyranosylonic acid(2→6)-β-galactopyranosyl(1→4)-2-acetamido-2-deoxy-β-D-glucopyranosyl}-β-D-galactopyranoside] | 8.4
